Consider one compound from article PMC10683025, “Discovery of a Hydroxylamine-Based Brain-Penetrant EGFR Inhibitor for Metastatic Non-Small-Cell Lung Cancer” (Journal of Medicinal Chemistry, 2023).

In series [1] the target is T1, BCR-ABLwt (Nonphos.) (Homo sapiens, UniProt P00519).
T1 construct: purchased Eurofins DiscoverX (contract assay)
As to the kind of experiment: KINOMEScan KdELECT Kd determination. The class given is binding. Conditions: read-out: Kinase Kd. On the procedure:
(§1) In vitro kinase activity (inhibitor binding constants (Kd) and biochemical inhibition (IC50’s)) were assessed by Eurofins DiscoverX (Kd determinations) and Eurofins Cerep (biochemical IC50 determinations).

The target of series [2] is T2, DRAK1 (Homo sapiens, UniProt Q9UEE5).
T2 construct: purchased Eurofins DiscoverX (contract assay)
T2 sequence (Q9UEE5 1-414): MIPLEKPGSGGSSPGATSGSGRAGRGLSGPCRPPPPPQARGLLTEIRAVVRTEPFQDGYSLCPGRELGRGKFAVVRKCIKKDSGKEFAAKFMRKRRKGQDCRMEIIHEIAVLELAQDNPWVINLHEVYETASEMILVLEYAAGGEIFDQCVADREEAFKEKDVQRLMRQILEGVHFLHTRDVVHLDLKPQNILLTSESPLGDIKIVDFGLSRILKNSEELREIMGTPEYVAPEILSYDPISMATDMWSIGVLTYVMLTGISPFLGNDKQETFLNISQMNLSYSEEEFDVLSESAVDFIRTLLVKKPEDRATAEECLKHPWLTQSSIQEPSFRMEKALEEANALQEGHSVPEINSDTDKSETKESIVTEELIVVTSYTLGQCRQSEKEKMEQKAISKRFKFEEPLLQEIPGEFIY
As to the kind of experiment: KINOMEScan KdELECT Kd determination. The class given is binding. The conditions noted are these: read-out: Kinase Kd. On the procedure: as §1

Series [3] has as its target T3, LYN (Homo sapiens, UniProt P07948).
T3 construct: purchased Eurofins DiscoverX (contract assay)
As to the kind of experiment: KINOMEScan KdELECT Kd determination. The class given is binding. Conditions: read-out: Kinase Kd. On the procedure: as §1

A short description of series [4]: Oral CNS pharmacokinetic assessment. The class given is in vivo, Sprague-Dawley rats. Conditions: male, Sprague-Dawley, brain, Rat 20 mg/kg (PO). As for the experimental part:
Animal experiments were performed at Pharmaron, Inc. and animal use was approved by Pharmaron’s Institutional Animal Care and Use Committee (IACUC) in Pharmaron (Pharmaron IACUC, Protocol #PK-M-07182022, #PK-R-06012022, and #ON-CELL-XEN-06012022) following the guidance of AAALAC. Six- to eight-week-old male Sprague-Dawley rats (approximately 200–300 g) obtained from Si Bei Fu Laboratory Animal Technology Co., six- to eight-week-old male CD1 mice (approximately 20–30 g) obtained from Si Bei Fu Laboratory Animal Technology Co., and six- to eight-week-old female BALB/c nude mice (approximately 20–30 g) obtained from Si Bei Fu Laboratory Animal Technology Co., were used in the pharmacokinetic studies. Six- to eight-week-old female BALB/c nude mice (approximately 18–22 g) obtained from Beijing Anikeeper Biotech Co., Ltd. were used in the intracranial PDX study. […]
Oral CNS pharmacokinetic assessment of 9 was done by oral gavage (formulation: 1% methylcellulose) followed by blood and brain sampling at 7 time points (0.25, 0.5, 1, 2, 4, 8, 24 h post dose) with n = 3 animals per time point (n = 21 total). […] Concentrations of 9 in the plasma and brain samples were determined using LC-MS/MS and WinNonlin 8.3 (Phoenix) was used for pharmacokinetic calculations. […]

For series [5], the target named is T4, ABL1(F317L)-phosphorylated (Homo sapiens, UniProt P00519, F317L).
T4 construct: purchased Eurofins DiscoverX
As to the kind of experiment: KINOMEScan. The class given is binding. Conditions: read-out: Percent Control.
From the text: (§2) Percent control was mapped onto the kinome tree using TREEspot.

For series [6], the target named is T5, AKT2 (Homo sapiens, UniProt P31751).
T5 construct: purchased Eurofins DiscoverX (KINOMEscan)
As to the kind of experiment: KINOMEScan. The class given is binding. The conditions noted are these: AKT2, 1 µM; read-out: Percent Control.
From the text: as §2

As usually defined, the Kd is the free concentration of one partner at which half of the binding sites on the other are occupied at equilibrium, for simple one-to-one binding.

T5 sequence (P31751 whole entry): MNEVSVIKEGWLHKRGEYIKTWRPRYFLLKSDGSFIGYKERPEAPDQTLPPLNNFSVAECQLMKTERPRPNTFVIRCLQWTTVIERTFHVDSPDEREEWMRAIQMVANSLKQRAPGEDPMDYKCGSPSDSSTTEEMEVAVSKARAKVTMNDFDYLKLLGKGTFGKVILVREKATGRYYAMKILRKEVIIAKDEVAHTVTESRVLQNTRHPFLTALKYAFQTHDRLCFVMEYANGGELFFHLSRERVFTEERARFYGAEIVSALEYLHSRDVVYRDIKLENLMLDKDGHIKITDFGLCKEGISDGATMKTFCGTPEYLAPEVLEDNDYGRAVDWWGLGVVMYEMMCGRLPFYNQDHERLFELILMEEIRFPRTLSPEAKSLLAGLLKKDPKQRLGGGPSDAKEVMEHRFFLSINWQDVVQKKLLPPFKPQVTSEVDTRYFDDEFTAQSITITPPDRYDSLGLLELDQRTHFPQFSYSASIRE
T1 sequence (P00519 229-512 limits assumed): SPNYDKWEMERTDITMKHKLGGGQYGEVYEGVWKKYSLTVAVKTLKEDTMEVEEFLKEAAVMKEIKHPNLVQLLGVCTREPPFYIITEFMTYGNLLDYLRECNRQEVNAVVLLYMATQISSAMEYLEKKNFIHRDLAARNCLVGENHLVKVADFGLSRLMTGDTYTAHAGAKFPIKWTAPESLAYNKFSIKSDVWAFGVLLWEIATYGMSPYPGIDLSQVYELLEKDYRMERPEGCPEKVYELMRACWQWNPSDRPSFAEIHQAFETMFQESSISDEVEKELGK
T3 sequence (P07948 whole entry): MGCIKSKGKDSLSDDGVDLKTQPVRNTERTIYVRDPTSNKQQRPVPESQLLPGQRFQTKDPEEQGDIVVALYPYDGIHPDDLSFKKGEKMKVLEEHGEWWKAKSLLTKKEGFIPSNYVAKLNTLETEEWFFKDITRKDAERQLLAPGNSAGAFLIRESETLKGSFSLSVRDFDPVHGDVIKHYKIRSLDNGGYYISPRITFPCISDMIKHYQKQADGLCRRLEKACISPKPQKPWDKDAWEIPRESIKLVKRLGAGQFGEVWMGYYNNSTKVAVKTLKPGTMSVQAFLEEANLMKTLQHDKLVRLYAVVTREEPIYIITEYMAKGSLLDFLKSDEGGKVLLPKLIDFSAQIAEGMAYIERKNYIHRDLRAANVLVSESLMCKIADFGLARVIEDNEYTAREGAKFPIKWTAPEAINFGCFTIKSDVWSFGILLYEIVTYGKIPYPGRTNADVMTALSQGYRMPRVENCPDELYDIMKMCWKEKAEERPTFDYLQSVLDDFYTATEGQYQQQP
T4 sequence (P00519 whole entry F317L): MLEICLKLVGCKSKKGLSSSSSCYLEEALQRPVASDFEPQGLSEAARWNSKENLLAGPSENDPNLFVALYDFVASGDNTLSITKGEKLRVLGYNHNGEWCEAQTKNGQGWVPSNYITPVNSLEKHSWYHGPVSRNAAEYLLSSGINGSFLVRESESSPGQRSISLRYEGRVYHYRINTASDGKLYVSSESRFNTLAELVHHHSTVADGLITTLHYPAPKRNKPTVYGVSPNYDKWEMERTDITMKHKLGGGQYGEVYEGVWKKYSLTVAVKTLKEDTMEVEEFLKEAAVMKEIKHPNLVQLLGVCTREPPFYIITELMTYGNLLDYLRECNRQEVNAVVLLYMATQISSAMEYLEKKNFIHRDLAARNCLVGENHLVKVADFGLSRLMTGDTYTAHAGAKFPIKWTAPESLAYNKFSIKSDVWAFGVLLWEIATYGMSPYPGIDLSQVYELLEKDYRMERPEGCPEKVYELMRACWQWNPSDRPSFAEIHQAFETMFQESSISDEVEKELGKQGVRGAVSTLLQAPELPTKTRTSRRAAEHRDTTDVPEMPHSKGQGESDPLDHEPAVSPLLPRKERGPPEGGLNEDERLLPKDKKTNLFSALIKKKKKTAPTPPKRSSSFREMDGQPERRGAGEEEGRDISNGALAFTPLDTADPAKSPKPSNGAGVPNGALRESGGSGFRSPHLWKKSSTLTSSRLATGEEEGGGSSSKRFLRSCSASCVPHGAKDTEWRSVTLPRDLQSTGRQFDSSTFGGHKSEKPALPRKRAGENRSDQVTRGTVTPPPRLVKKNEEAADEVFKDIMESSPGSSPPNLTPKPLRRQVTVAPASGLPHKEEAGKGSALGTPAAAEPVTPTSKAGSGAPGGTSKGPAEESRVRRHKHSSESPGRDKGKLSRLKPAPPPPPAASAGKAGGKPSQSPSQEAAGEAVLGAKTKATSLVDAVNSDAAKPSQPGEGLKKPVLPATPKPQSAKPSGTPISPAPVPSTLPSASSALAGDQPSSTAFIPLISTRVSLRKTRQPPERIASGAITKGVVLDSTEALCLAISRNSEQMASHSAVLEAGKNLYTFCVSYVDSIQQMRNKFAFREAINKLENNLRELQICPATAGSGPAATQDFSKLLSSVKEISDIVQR

Take `COc1cc2ncnc(Nc3cccc(Cl)c3F)c2cc1OCCON1CCN(C)CC1` [Compound 9, N-(3-Chloro-2-fluorophenyl)-7-methoxy-6-(2-((4-methylpiperazin-1-yl)oxy)ethoxy)quinazolin-4-amine]: the values for the Kd in series [1], in series [2] and in series [3] were 260 nM, 87 nM and 110 nM, respectively. In series [4] (read-out: Kp brain (AUCinf)), the Kp at 24 h is 0.95. The Kp uu at 24 h in series [4] (read-out: Kp,uu brain (AUCinf)) stood at 0.33. For the same compound, the remaining binding at 1 µM turned out to be 4% in series [5] and 91% in series [6].
